Data from PubChem BioAssay AID2060504 (Molecular Pharmacology Branch, DTP, NCI, 2025).

Tested on: 636577-100-R-J1-PDC complex spheroid viability
Experiment: Anticancer human tumor 636577-100-R-J1-PDC patient-derived endometrial adenocarcinoma cell line growth inhibition [GQUAD]
Settings: for IC50: curve of first compound; for viability, T/C: stronger effect = lower value; active means viability on the fitted dose curve at most 10% of control; inactive means the rest
Excerpt: DNA G-quadruplex Stabilizer Agents in Combinations in Complex Spheroids
A high-throughput screen of multi-cell type tumor spheroids was designed to identify active combinations of DNA G-quadruplex stabilizer agents and targeted small molecules. Complex spheroids include a stromal component modeled by human endothelial cells (HUVEC) and fibroblasts modeled by human mesenchymal stem cells (MSCs). The concentration ranges selected for each drug and investigational agent were based upon clinically achievable concentrations if the clinical Cmax of the agent was known.
Compounds. The drugs and investigational agents: pidnarulex (CX-5461; NSC782164), APTO-253 (NSC789042), BRACO-19 (NSC847499), peposertib (NSC802822), ceralasertib (NSC780249), elimusertib (NSC800525), camonsertib (NSC841442), AZD-1390 (NSC803789), olaparib (NSC753686), talazoparib (NSC767125), ART-558 (NSC835418), sotorasib (NSC818433), MRTX-1133 (NSC836407), SN-38 (NSC673596), topotecan (NSC609699), etoposide (NSC141540), doxorubicin (NSC123127), gemcitabine (NSC613327), 5-fluorouracil (NSC19893), paclitaxel (NSC125973), vemurafenib (NSC761431), panobinostat (NSC761190), R-306465 (JNJ-16241199; NSC773264), adavosertib (NSC754352), TP-3654 (NSC805149), carboplatin (NSC241240), KSQ-4279 (NSC840948), and staurosporine (NSC755774) were obtained from the National Cancer Institute (NCI) Developmental Therapeutics Program Chemical Repository (34). The FDA-approved anticancer drug set is available from the NCI Developmental Therapeutics Program. […] The stock solutions were prepared in dimethyl sulfoxide (DMSO, Sigma-Aldrich, St. Louis, MO, cat. D2650) at 800-fold the tested concentration and stored at -70 degrees C prior to their use. All drugs and investigational agents were tested over a range starting from a high concentration at or near the clinical Cmax and decreasing in half-log increments. If the clinical Cmax for an agent had not been determined, the highest concentration tested was 10 microM.
2.3 Cell Culture. All cells were maintained in an incubator at 37 degrees C and 5% CO2 with 95% humidity. The PDC lines were cultured according to standard operating procedures established by the NCI PDMR. All PDCs were thawed and cultured in Matrigel-coated flasks prepared with a working solution of 1X Ham's F-12 nutrient mix, without supplementation (Invitrogen, cat. 11765054), 100 U/mL penicillin-streptomycin (Invitrogen, cat. 15140122), and 2.5% Matrigel (Corning Inc., cat. 354248) for the first three passages. The 857933-349-R-J2-PDC line was cultured in 6C/Colon 1B media, which includes advanced DMEM/F-12 (Thermo Fisher Scientific, cat. 12634028), 10 mM HEPES (Thermo Fisher Scientific, cat. 15630080), 1X GlutaMAX supplement (Thermo Fisher Scientific, cat. 35050061), 0.1 mg/mL primocin (InvivoGen, cat. ant-pm-2), 10% defined fetal bovine serum, heat inactivated (HyClone Laboratories Inc., cat. SH30070.03HI), 50% L-WRN conditioned media (ATCC, cat. CRL-3276), 1.25 mM N-Acetyl-L-cysteine (Sigma-Aldrich, cat. A9165), 10 mM nicotinamide (Sigma-Aldrich, cat. N0636), 1X B-27 supplement (Thermo Fisher Scientific, cat. 17504044), 1X N-2 supplement (Thermo Fisher Scientific, cat. 17502048), 10 microM Y-27632 dihydrochloride (Tocris Bioscience, cat. 1254), and 50 ng/mL human EGF recombinant protein (Thermo Fisher Scientific, cat. PHG0311). The 485176-168-R4-J1-PDC line was cultured in Panc media, which includes all 6C/Colon 1B media components plus 100 ng/mL human FGF-10 (Thermo Fisher Scientific, cat. 100-26), 500 nM SB-431542 (Selleckchem, cat. S1067), and gastrin (Tocris, cat. 3006).
[…]
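Further: viability read after seven days of drug exposure.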
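Wherever viability, T/C is given: luminescence signal used as a proxy for viable cells; 100% = DMSO vehicle control wells.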

COc1cc(C2c3cc4c(cc3C(OC3OC5COC(C)OC5C(O)C3O)C3COC(=O)C23)OCO4)cc(OC)c1O (configuration not stated) + Cc1[nH]c2ccc(F)cc2c1-c1nc2c3cccnc3c3ncccc3c2[nH]1
68.8 nM: IC50 (second compound 0.1 µM)
58.8 nM: IC50 (second compound 1 µM)
86.7 nM: IC50 (second compound 0.0316 µM)
< 31.6 nM: IC50 (second compound 3.16 µM)
inactive: viability, T/C (second compound 0.0316 µM, first compound 0.0316 µM) 80.6% | viability, T/C (second compound 0.0316 µM, first compound 0.1 µM) 45.6% | viability, T/C (second compound 0.0316 µM, first compound 0.316 µM) 24.1% | viability, T/C (second compound 0.0316 µM, first compound 1 µM) 16.1% | viability, T/C (second compound 0.0316 µM, first compound 3.16 µM) 16% | viability, T/C (second compound 0.0316 µM, first compound 10 µM) 14% | viability, T/C (second compound 0.1 µM, first compound 0.0316 µM) 68.4% | viability, T/C (second compound 0.1 µM, first compound 0.1 µM) 41.2% | viability, T/C (second compound 0.1 µM, first compound 0.316 µM) 23.4% | viability, T/C (second compound 0.1 µM, first compound 1 µM) 17.1% | viability, T/C (second compound 0.1 µM, first compound 3.16 µM) 17.5% | viability, T/C (second compound 0.1 µM, first compound 10 µM) 13.9% | viability, T/C (second compound 0.316 µM, first compound 0.0316 µM) 71.5% | viability, T/C (second compound 0.316 µM, first compound 0.1 µM) 46.7% | viability, T/C (second compound 0.316 µM, first compound 0.316 µM) 21.1% | viability, T/C (second compound 0.316 µM, first compound 1 µM) 16.8% | viability, T/C (second compound 0.316 µM, first compound 3.16 µM) 16.8% | viability, T/C (second compound 0.316 µM, first compound 10 µM) 14.2% | viability, T/C (second compound 1 µM, first compound 0.0316 µM) 65.3% | viability, T/C (second compound 1 µM, first compound 0.1 µM) 37.2% | viability, T/C (second compound 1 µM, first compound 0.316 µM) 21.4% | viability, T/C (second compound 1 µM, first compound 1 µM) 19.9% | viability, T/C (second compound 1 µM, first compound 3.16 µM) 18% | viability, T/C (second compound 1 µM, first compound 10 µM) 13.8% | viability, T/C (second compound 3.16 µM, first compound 0.0316 µM) 30% | viability, T/C (second compound 3.16 µM, first compound 0.1 µM) 23.9% | viability, T/C (second compound 3.16 µM, first compound 0.316 µM) 21% | viability, T/C (second compound 3.16 µM, first compound 1 µM) 18.5% | viability, T/C (second compound 3.16 µM, first compound 3.16 µM) 17.8% | viability, T/C (second compound 3.16 µM, first compound 10 µM) 14.1% | viability, T/C (second compound 10 µM, first compound 0.0316 µM) 52.5% | viability, T/C (second compound 10 µM, first compound 0.1 µM) 34.6% | viability, T/C (second compound 10 µM, first compound 0.316 µM) 21.9% | viability, T/C (second compound 10 µM, first compound 1 µM) 19.1% | viability, T/C (second compound 10 µM, first compound 3.16 µM) 18.3% | viability, T/C (second compound 10 µM, first compound 10 µM) 15.1%
85.8 nM: IC50 (second compound 0.316 µM)
36.8 nM: IC50 (second compound 10 µM)
